The text below walks through data of patent US20170267679A1, “[…] FUSED PYRIMIDINE COMPOUNDS AS INHIBITORS OF p97 COMPLEX” (Cleave Biosciences, Inc., priority 2016, published 2017).

One may read the IC50 as the midpoint of a concentration-inhibition curve.

The structures appear in SMILES notation.

In data set [1] the test system is K48-Ub in A549 cells. In words: A549 K48 cell intensity (K48 poly-ubiquitin immunofluorescence). It counts as cell-based. To be noted: Homo sapiens, 6 hr incubation. The protocol:
Image-analysis is used to generate quantitative data from these assays that can be fit to a four-parameter sigmoid curve to derive IC50 values. Substrates of the ubiquitin-proteasome system, such as p53, are monitored after tumor cell lines are incubated with compounds for several hours. Accumulation of these proteins indicates an inhibition of proteasome-mediated degradation. Accumulation of lysine-48 chain linkage of poly-ubiquitin is also monitored by immunofluorescence as an indicator of ubiquitin-proteasome system inhibition. Both LC3 and SQSTM1 are mediators of autophagy. The localization and amounts of these proteins are monitored by immunofluorescence and report on the activity and inhibition of autophagy in response to p97 inhibition.
(§1) Plate 25 μL of A549 cells in every well of 384-well plate using multidrop. • Two (2) black plates for IF at 2500 cells/well • Let plate sit at room temp for 10-15 minutes prior to putting in incubator to allow cells to stick in middle of plate. • One (1) white plate for viability at 500 cells/well.
Treat Cells: • Serial dilute compounds with a 10 point 2-fold serial dilution in DMSO to make 250× stock compound solution • Dilute compounds 1:125 in cell culture media to make a 2× solution Add 25 μL of dilution compounds to cell plates in well duplicates Put cells back in incubator (6 hr incubation for black plates, 72 hr incubation for white plates).
Incubate cells in black plates with compound at 37 deg C. for 6 hrs. add 15 μL of 16% Paraformaldehyde (PFA) directly into media of each well, • incubate at room temp for 5 min, flick plate and wash in 50 µL of PBS block in 50 μL of Blocking Buffer for 30 minutes (can go up to several hours) • Blocking buffer: 1×PBS, 1% BSA, 0.3% Triton-X100, Hoechst (1:10,000) incubate in 25 μL of primary antibody in blocking buffer at 4 deg C. over night […]
Secondary Antibodies: • AlexaFluor488 Goat anti-Rabbit 1:2,000 (Life Tech A11008) • AlexaFluor555 Goat anti-Mouse 1:2,000 (Life Tech A21422) wash black plates 3× in 50 μL PBS (˜5 min each) • incubate in 25 μL of secondary antibody (1:2,000) in blocking buffer for 1-2 hrs at room temp (alexafluor488-anti-Rabbit/alexafluor555-anti-Mouse) Image plates in high content microscope with 405 nm, 488 nm and 555 nm filters Data Analysis: • Nuclear counts and cellular intensities of each markers are measured using Hoechst as a nuclear marker with an automated image analysis protocol using Matlab software (Math Works)

The subject of data set [2] is A549 cells. In words: A549 CellTitre Glo viability assay. The class given is cell-based. To be noted: Homo sapiens, 72 hr incubation.
From the text: Anti-tumor effects are monitored in cultured cancer cells after several days of compound treatment. The cell titer glo assay (Promega) measures the amount of ATP present as a proxy for cellular viability. Cellular counting is done using high-content microscopy followed by image analysis. A hanging drop 3D-culture system (3D Biomatrix) is used followed by cell titer glo to measure growth in a tumor-like environment.
The cellular assay provides information about the anti-neoplastic activity of the compounds of the invention. The compounds are tested against cultured cancer cells to determine whether or not the compounds of the invention are capable of intersecting with cancer cells to minimize or eliminate such cells. The assay involves establishing colonies of such cells and then treating them with the test compound under specified conditions and analysis regima to determine results.
as §1
Treat Cells: • Serial dilute compounds with a 10 point 2-fold serial dilution in DMSO to make 250× stock compound solution • Dilute compounds 1:125 in cell culture media to make a 2× solution Add 25 μL of dilution compounds to cell plates in well duplicates
Put cells back in incubator (6 hr incubation for black plates, 72 hr incubation for white plates).
Thaw an aliquot of frozen cell titer glo (Promega G7572) at room temperature.
Add 45 mL of NaCl/PBS solution to 5 ml of cell titer glo (10×).
Remove white plates from incubator, leave at room temp for 30 minutes.
Add 25 μL of diluted cell titer glo to each well.
Shake plate for >1 minute.
Incubate plate for >5 minutes to stabilize luminescence.
Read luminescence on plate reader

Data set [3] deals with p97 (Homo sapiens, UniProt P55072). In words: p97 ADP Glo ATPase biochemical assay. Particulars: 20 nM p97, 20 uM ATP, 37 deg C, 15 min; read-out: 97 ADP Glo Assay: IC50. The protocol: The ATPase assay is performed according the following protocol: Purified enzyme (20 nM p97), substrate (20 μM ATP) and a dose titration of compounds are mixed in buffer (50 mM TRIS pH 7.5, 20 mM MgCl2, 0.02% TX-100, 1 mM DTT, 0.2% (v/v) glycerol) and incubated at 37° C. for 15 minutes. The reaction is terminated and the level of product generated is measured using the ADP Glo Assay Kit (Promega, Madison Wis.). Plotting product generated versus compound concentration and using a four-parameter fit model generates an IC50 value for each compounds.
p97, sequence (P55072 whole entry): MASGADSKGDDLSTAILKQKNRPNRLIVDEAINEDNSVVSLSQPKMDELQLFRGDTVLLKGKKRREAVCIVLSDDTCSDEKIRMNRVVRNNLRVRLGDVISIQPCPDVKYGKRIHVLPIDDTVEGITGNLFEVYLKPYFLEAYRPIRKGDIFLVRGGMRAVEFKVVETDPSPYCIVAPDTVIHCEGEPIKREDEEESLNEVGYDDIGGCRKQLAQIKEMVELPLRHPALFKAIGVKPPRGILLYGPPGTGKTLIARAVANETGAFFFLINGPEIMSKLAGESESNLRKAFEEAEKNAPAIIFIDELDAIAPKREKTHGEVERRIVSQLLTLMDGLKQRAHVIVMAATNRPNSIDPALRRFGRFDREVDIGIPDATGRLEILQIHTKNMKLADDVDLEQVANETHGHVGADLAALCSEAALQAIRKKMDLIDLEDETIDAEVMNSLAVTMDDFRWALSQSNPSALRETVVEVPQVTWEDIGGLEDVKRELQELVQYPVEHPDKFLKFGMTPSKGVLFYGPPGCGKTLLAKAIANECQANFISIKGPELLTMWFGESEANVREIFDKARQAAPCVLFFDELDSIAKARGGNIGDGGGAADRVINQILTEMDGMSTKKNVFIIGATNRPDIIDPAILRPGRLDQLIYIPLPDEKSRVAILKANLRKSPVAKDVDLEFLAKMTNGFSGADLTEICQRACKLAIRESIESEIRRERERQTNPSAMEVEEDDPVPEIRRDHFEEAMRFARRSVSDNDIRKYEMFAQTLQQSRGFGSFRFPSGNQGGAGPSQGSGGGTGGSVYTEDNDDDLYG
The p97 assay is an initial screening assay used to determine inhibitory activity of the compounds of the invention against the p97 complex. As discussed above, inhibition of activity of the p97 proteosome complex can enable apoptosis and cause elimination of neoplastic cells (cancer cells). The method follows that of Christianson in Nat. Cell Biol., (2011) 14:93.
Assay Buffer is a mixture of 50 mM TRIS pH 7.5, 20 mM MgCl2, 0.02% TX-100, 1 mM DTT and 0.2% (v/v) Glycerol. The well plate is Platetype: Corning 3674, 384 w plate. The identification kit is an ADP glo kit (Promega): stop buffer, detection reagent.
Serial dilute compound in DMSO in a 1:3.33-fold 10 point serial dilution.
in each well of 384 w plate add the following reagents:
0.5 μL compound serial diluted in DMSO (Final Conc. 10%)
2 μL ATP (Final Conc.=20 uM, diluted in assay buffer)
2.5 μL p97 (Final Conc.=20 nM, diluted in assay buffer)
Incubate at 37 deg C. for 15 min.
Add 5μ of stop buffer, incubate at RT for 40 min.
Add 10 μL of detection reagent, incubate at RT for 30 min.
Read luminescence on Envision plate reader.
Normalize luminescence data using no enzyme (full inhibition) and no compound (no inhibition) controls. Plot normalized luminescence data against log-transformed concentration values and fit to a sigmoidal curve to determine IC50 values (done in Collaborative Drug Discovery software).
(ADP-Glo turns the ADP formed in a reaction into a luminescent signal.)

For data set [4], the system named is Caco-2 cell monolayer. Particulars: pH 7.4, range over 12 inter-day experiments.

Regarding `Cc1cc2c(C(N)=O)cccc2n1-c1nc(NCc2ccccc2)c2c(n1)C1CCCCN1CC2` (centres unmarked) [Compound 001, 1-(4-(benzylamino)-6,8,9,10,11,11a-hexahydro-5H-pyrimido[4,5-a]quinolizin-2-yl)-2-methyl-1H-indole-4-carboxamide], the values for the IC50 in data set [1], in data set [2] and in data set [3] were 736 nM, 1340 nM and 16 nM, respectively.

Turning to `Cc1cc2c(C(N)=O)cccc2n1-c1nc(NCc2ccccc2)c2c(n1)C1CCCN1CC2` (centres unmarked) [Compound 002, 1-(4-(benzylamino)-5,6,8,9,10,10a-hexahydropyrimido[5,4-g]indolizin-2-yl)-2-methyl-1H-indole-4-carboxamide], the IC50 in data set [1] amounted to 6620 nM; in data set [2], 2690 nM; in data set [3], 15 nM.

Take `Cc1cc2c(C(N)=O)cccc2n1-c1nc2c(c(NCc3ccccc3)n1)CN1CCCCC1C2` (centres unmarked) [Compound 003, 1-(4-(benzylamino)-7,8,9,10,10a,11-hexahydro-5H-pyrimido[4,5-b]quinolizin-2-yl)-2-methyl-1H-indole-4-carboxamide]: the IC50 is 642 nM in data set [1], 2340 nM in data set [2] and 25 nM in data set [3].

With `Cc1cc2c(C(N)=O)cccc2n1-c1nc2c(c(NCc3ccccc3)n1)CN1CCCC1C2` (centres unmarked) [Compound 004, 1-[4-(Benzylamino)-5,7,8,9,9a,10-hexahydropyrimido[5,4-f]indolizin-2-yl]-2-methyl-indole-4-carboxamide], the IC50 in data set [1] came out at 273 nM; in data set [2], 1120 nM; in data set [3], 19 nM.

Turning to `CC(C)NCC(O)COc1cccc2ccccc12` (centres unmarked) [Propranolol], in data set [4] (A to B), the “Peff in pH 7.4 Caco-2, A B, Range” value is 18.50-36.80 x E−6 cm/sec. Also, the “Peff in pH 7.4 Caco-2, B A, Range” value in data set [4] (B to A) is on record as 16.30-31.40 x E−6 cm/sec.
